Measurements from paper PMC6429183, “Identification of Compounds That Inhibit Estrogen-Related Receptor Alpha Signaling Using High-Throughput Screening Assays” (Molecules, 2019).
Values joined by “and” are separate entries in the source; they are usually repeats but may differ in a detail not shown here. Identical values can stand only once. Like-named read-outs stand apart in the source and are kept apart here.

Experiments:
[1] = test system: PGC/ERR reporter HEK293 cells; assay: CellTiter-Fluor cell viability assay multiplexed with PGC/ERR reporter assay; type: cell-based; conditions: for EC50: Homo sapiens
Method: (§1) ERR or PGC/ERR reporter HEK293 cells suspended in culture medium without puromycin were dispensed at 2500 cells/5 μL/well in tissue culture–treated 1536-well white assay plates (Greiner Bio-One North America, Monroe, NC, USA) using a Thermo Scientific Multidrop Combi (ThermoFisher Scientific, Inc.). […] After the cells were incubated at 37 °C with 5% CO2 for 6 h, 23 nL of compounds or control, XTC790, was transferred into the assay plates using a Wako Pintool station (Wako Automation, San Diego, CA, USA). The assay plates were incubated at 37 °C for 18 h, followed by the addition of 5 μL ONE-Glo luciferase reagent (Promega, Madison, WI, USA) using a Flying Reagent Dispenser (Aurora Discovery, Carlsbad, CA, USA). After 30 min of incubation at room temperature, the luminescence intensity of the assay plates was quantified using a ViewLux plate reader (PerkinElmer, Shelton, CT, USA). The assays were performed three times for each compound concentration. These ERR and PGC/ERR reporter assays were multiplexed with the CellTiter-Fluor Cell Viability Assay (Promega), a fluorescence-based cell viability assay, to assess compound cytotoxicity.
The qHTS data were analyzed as described previously. Each titration point was normalized relative to the positive control compound (XCT790 = −100%) and DMSO-only wells (0%) according to the following equation: % Activity = [(Vcompound − VDMSO)/(VDMSO − Vpos)] × 100, where Vcompound denotes the compound well values, Vpos denotes the median value of the positive control wells, and VDMSO denotes the median values of the DMSO-only wells. The DMSO-only compound plates at the beginning and end of the compound plate stack were used to correct the data set by applying an in-house pattern correction algorithm. The half maximum inhibition values (IC50) for each compound and maximum response (efficacy) values were obtained by fitting the concentration-response curves of each compound to a four-parameter Hill equation [91]. Compounds were designated as Class 1–4 according to the type of concentration–response curve observed. For each reading, the activity outcome of a test compound was first categorized by the average curve rank from the triplicate runs and the reproducibility calls. The final activity outcome of each compound was based on the ERR antagonist readout activity and cell viability counter screen.

IDH3α = assay: qRT-PCR mRNA expression of ERR downstream gene IDH3α; type: cell-based; conditions: ERR reporter cells, vs GAPDH, DMSO = 0%
Method: (§2) Total RNA was isolated from treated ERR reporter cells using an RNeasy Mini Kit (Qiagen, Germantown, MD, USA), homogenized using a QIAshredder (Qiagen), and reverse transcribed with a High-Capacity RNA-to-cDNA™ Kit (ThermoFisher Scientific, Inc.) following the manufacturers’ instructions. Expression of ERRα, COX8α, IDH3α, PPARα, COX4I1, and cytochrome c genes was normalized against GAPDH. All primers were purchased from ThermoFisher Scientific, Inc. Real-time PCR assays were performed in 384-well plates on a QuantStudio 5 (Applied Biosystems, Foster City, CA, USA) with TaqMan™ Gene Expression Master Mix (ThermoFisher Scientific, Inc.). Induction values were calculated using the equation: Fold = 2^ΔΔCt, where ΔCt represents the differences in cycle threshold numbers between each of the target genes and GAPDH, and ΔΔCt represents the relative change in these differences between control and treatment groups. Experimental data are presented as a mean of triplicate determinations ± SD. Statistical comparisons were made by t-test, while the statistical significance was set at p values of <0.05 (light blue), <0.01 (medium blue), and <0.001 (dark blue).

[2] = biological target: T1, estrogen-related receptor alpha (ERRα) (Homo sapiens, UniProt P11474); assay: ERR reporter (luciferase) antagonist qHTS assay, ERR-HEK293; conditions: for EC50: mean ± SD, triplicate; for ERR-HEK293 Follow-Up Efficacy: follow-up screen; for ERR-HEK293 Follow-Up Efficacy / ERR-HEK293 Primary Efficacy: relative to XCT790 = −100%; for activity in the ERR assay: in words; for ERR-HEK293 Primary Efficacy: primary qHTS, DMSO = 0%
T1 sequence (P11474 1-423): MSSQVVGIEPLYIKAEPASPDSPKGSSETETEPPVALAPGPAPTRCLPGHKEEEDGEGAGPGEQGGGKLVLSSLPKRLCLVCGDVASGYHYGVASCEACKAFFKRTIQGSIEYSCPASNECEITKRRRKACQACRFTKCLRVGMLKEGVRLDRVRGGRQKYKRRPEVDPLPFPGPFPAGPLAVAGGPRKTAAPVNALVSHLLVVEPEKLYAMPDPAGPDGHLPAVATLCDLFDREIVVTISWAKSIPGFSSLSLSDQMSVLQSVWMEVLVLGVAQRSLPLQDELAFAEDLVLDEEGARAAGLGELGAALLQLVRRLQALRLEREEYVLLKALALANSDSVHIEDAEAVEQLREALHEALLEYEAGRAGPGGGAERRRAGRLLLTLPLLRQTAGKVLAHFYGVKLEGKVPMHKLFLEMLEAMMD
Method: (§3) The ERR reporter HEK293 cells were cultured in high glucose DMEM medium (ThermoFisher Scientific, Inc., Waltham, MA, USA) supplemented with 10% fetal bovine serum (FBS; ThermoFisher Scientific, Inc.), 4 mM of L-glutamine (ThermoFisher Scientific, Inc.), 1 mM of sodium pyruvate (ThermoFisher Scientific, Inc.), 100 U/mL of penicillin and 100 mg/mL of streptomycin (ThermoFisher Scientific, Inc.). PGC/ERR reporter HEK293 cells were cultured in the same medium as the ERR reporter HEK293 cells with an additional 1 μg/mL puromycin (ThermoFisher Scientific, Inc.) as the selection marker for PGC-1α expression.
(§4) The DMSO-only compound plates at the beginning and end of the compound plate stack were used to correct the data set by applying an in-house pattern correction algorithm [90]. The half maximum inhibition values (IC50) for each compound and maximum response (efficacy) values were obtained by fitting the concentration-response curves of each compound to a four-parameter Hill equation [91]. […] For each reading, the activity outcome of a test compound was first categorized by the average curve rank from the triplicate runs and the reproducibility calls. The final activity outcome of each compound was based on the ERR antagonist readout activity and cell viability counter screen.

cytochrome c = assay: qRT-PCR mRNA expression of ERR downstream gene cytochrome c; type: cell-based; conditions: ERR reporter cells, vs GAPDH, DMSO = 0%
Method: as §2

[3] = test system: ERR reporter HEK293 cells; assay: CellTiter-Fluor cell viability assay multiplexed with ERR reporter assay; type: cell-based; conditions: for EC50: Homo sapiens; for ERR-HEK293 Follow-Up Viability EC50: follow-up screen
Method: as §1
The qHTS data were analyzed as described previously. […] The DMSO-only compound plates at the beginning and end of the compound plate stack were used to correct the data set by applying an in-house pattern correction algorithm. The half maximum inhibition values (IC50) for each compound and maximum response (efficacy) values were obtained by fitting the concentration-response curves of each compound to a four-parameter Hill equation [91]. […] For each reading, the activity outcome of a test compound was first categorized by the average curve rank from the triplicate runs and the reproducibility calls. The final activity outcome of each compound was based on the ERR antagonist readout activity and cell viability counter screen.

COX4I1 = assay: qRT-PCR mRNA expression of ERR downstream gene COX4I1; type: cell-based; conditions: ERR reporter cells, vs GAPDH, DMSO = 0%
Method: as §2, with “Experimental data are presented as a mean of triplicate determinations ± SD. Statistical comparisons were made by t-test, while the statistical significance was set at p values of <0.05 (light blue), <0.01 (medium blue), and <0.001 (dark blue).” left out

[4] = biological target: T2, ERRα with PGC-1α (PGC/ERR pathway) (Homo sapiens, UniProt P11474); assay: PGC/ERR reporter (luciferase) qHTS assay, PGC/ERR-HEK293; conditions: for EC50: mean ± SD, triplicate; for PGC/ERR-HEK293 Follow-Up Efficacy: follow-up screen; for PGC/ERR-HEK293 Follow-Up Efficacy / PGC/ERR-HEK293 Primary Efficacy: negative = antagonism, positive = agonism; for activity in the ERR/PGC assay: in words; for PGC/ERR-HEK293 Primary Efficacy: primary qHTS
T2 sequence (P11474 1-423): T1 sequence (P11474 1-423)
Method: as §3, §4

[5] = test system: Nrf2/antioxidant response element (ARE); assay: Nrf2/ARE-HepG2 β-lactamase reporter agonist assay; type: cell-based; conditions: agonist mode, heatmap outcome
Method: After the assay plates were incubated at 37 °C for 5–6 h, 23 nL of compounds dissolved in DMSO or positive controls were transferred to the assay plates via a Wako Pintool station (Wako). Except for ARE and p53, all other assays received 1 µL/well agonist (10 nM R1881 for AR; 0.5 and 5 nM β-estradiol for ERα and ERβ respectively; 300 µM CDCA for FXR; 50 nM Rosiglitazone for PPARγ; and 5 nM R5020 for PR) or assay medium using a Flying Reagent Dispenser (FRD). The assay plates were incubated for 16 h (AR, Nrf2/ARE, ERβ, FXR, p53, and PR), 17 h (PPARγ), or 18 h (ERα) at 37 °C, and 1 µL/well LiveBLAzer™ FRET-B/G CCF4-AM substrate (ThermoFisher Scientific, Inc.) detection mix was added using an FRD and the plates were incubated at room temperature for 2 h. […] Data were expressed as the ratio of 460/530 nm emission values.

COX8α = assay: qRT-PCR mRNA expression of ERR downstream gene COX8α; type: cell-based; conditions: 3 µM; ERR reporter cells; vs GAPDH, DMSO = 0%
Method: as §2

[6] = HEK293, primary qHTS, read-out: PGC/ERR-HEK293 Primary Viability EC50 (converted)
[7] = ERR-HEK293 Follow-Up EC50, follow-up (confirmation) screen
[8] = ERR-HEK293 Primary EC50, primary qHTS, 18 h, 15 concentrations
[9] = primary qHTS, viability counter screen
[10] = PGC/ERR-HEK293 Follow-Up EC50, follow-up screen
[11] = PGC/ERR-HEK293 Primary EC50, primary qHTS, 18 h

| Compound | EC50 [1, 6] [µM] | EC50 [2, 7] [µM] | EC50 [2, 8] [µM] | ERR-HEK293 Follow-Up Efficacy [2] [%] | activity in the ERR assay [2] | ERR-HEK293 Primary Efficacy [2] [%] | ERR-HEK293 Primary Viability EC50 [3, 9] | EC50 [4, 10] [µM] | EC50 [4, 11] [µM] | PGC/ERR-HEK293 Follow-Up Efficacy [4] [%] | activity in the ERR/PGC assay [4] | PGC/ERR-HEK293 Primary Efficacy [4] [%] | activity in the Nrf2-ARE assay [5] | ERR-HEK293 Follow-Up Viability EC50 [3] | other results |
| --- | --- | --- | --- | --- | --- | --- | --- | --- | --- | --- | --- | --- | --- | --- | --- |
| C=C(C)[C@H]1Cc2c(ccc3c2O[C@@H]2COc4cc(OC)c(OC)cc4[C@@H]2C3=O)O1 [Rotenone] | 1.01 | 0.016 ± 0.00671 | 0.0133 ± 0.00476 | −95.8 ± 17.8 | potent antagonists | −92.4 ± 3.03 | Inactive | 0.0618 ± 0.061 | 0.00742 ± 0.00207 | −41.9 ± 8.70 | antagonism | −31.0 ± 4.14 |  |  | EC50 ([1]; HEK293, follow-up screen, read-out: PGC/ERR-HEK293 Follow-Up Viability EC50 (converted)): 2.97 µM; Percent inhibition of mRNA gene expression, IDH3α (IDH3α; 175 nM): 22.4% and 22.4 ± 3.14%; Percent inhibition of mRNA gene expression, Cytochrome C (cytochrome c; 175 nM): 27.3% and 27.3 ± 7.33%; EC50 ([3]; HEK293, read-out: ERR-HEK293 Follow-Up Viability EC50): 0.429 µM; Percent inhibition of mRNA gene expression, COX4I1 (COX4I1; 175 nM): 2.34 ± 3.78% |
| COc1cc([C@@H]2c3cc4c(cc3[C@@H](O[C@@H]3O[C@@H]5CO[C@@H](C)O[C@H]5[C@H](O)[C@H]3O)[C@H]3COC(=O)[C@H]23)OCO4)cc(OC)c1O [Etoposide] | 56.3 | 8.12 ± 4.42 | 9.24 ± 8.56 | −88.9 ± 6.62 | antagonistic activity | −115 ± 6.85 |  | 10.7 ± 2.44 | 2.1 ± 0.526 | 89.3 ± 19.5 | agonist activity | 62.9 ± 2.71 | active agonists | Inactive | PGC/ERR-HEK293 Follow-Up Viability EC50 ([1]; follow-up screen): Inactive; Percent inhibition of mRNA gene expression, IDH3α (IDH3α; 18 µM): 7.19 ± 23.5%; Percent inhibition of mRNA gene expression, Cytochrome C (cytochrome c; 18 µM): 6.55 ± 3.18%; EC50 ([3]; HEK293, primary qHTS, viability counter screen, read-out: ERR-HEK293 Primary Viability EC50 (converted)): 56.3 µM |
| Acriflavine hydrochloride |  |  |  |  |  |  |  |  |  |  |  |  | inconclusive |  | Percent inhibition of mRNA gene expression, IDH3α (IDH3α; 3 µM): 74.2% and 74.2 ± 9.92%; Percent inhibition of mRNA gene expression, COX8α (COX8α): 30.2 ± 18.2%; Percent inhibition of mRNA gene expression, Cytochrome C (cytochrome c; 3 µM): 41.8% and 41.8 ± 3.72%; Percent inhibition of mRNA gene expression, COX4I1 (COX4I1; 3 µM): 4.76 ± 8.24% |
| C[C@@H]1CC[C@H]2[C@@H](C)C(=O)O[C@@H]3O[C@@]4(C)CC[C@@H]1[C@]32OO4 [Artemisinin] |  | 2.44 ± 1.22 | 1.01 ± 0.297 | −83.7 ± 14.6 |  | −71.6 ± 5.57 | Inactive | 14.5 ± 10.8 | 1.78 ± 0.401 | −72.8 ± 22.0 | antagonism | −57.6 ± 2.03 | active agonists | Inactive | Percent inhibition of mRNA gene expression, IDH3α (IDH3α; 7 µM): 30.2%; ERR-HEK293 Primary Efficacy ([2]; listed as artemisinin): −71.6%; Percent inhibition of mRNA gene expression, Cytochrome C (cytochrome c; 7 µM): 36.2% |
| Cc1nc2ccccc2n1Cc1ccc(Cl)cc1 [Chlormidazole] |  |  |  |  |  |  |  |  |  |  |  |  |  |  | Percent inhibition of mRNA gene expression, IDH3α (IDH3α; 5 µM): 23.8 ± 3.17%; Percent inhibition of mRNA gene expression, Cytochrome C (cytochrome c; 5 µM): 35.8 ± 3.92%; Percent inhibition of mRNA gene expression, COX4I1 (COX4I1; 5 µM): 4.71 ± 5.09% |
